Source: patent publication US20250320213A1, “Nitrogen-Containing Heterocyclic Compounds” (Pfizer Inc., priority 2024, published 2025)
Like-named read-outs stand apart in the source and are kept apart here.

Assays:
STAT6 = biological target: T1, STAT6 (Homo sapiens, UniProt P42226); test: STAT6 Reporter Luciferase Assay (IL-13 stimulated HaCaT keratinocyte NanoLuc reporter cells); format: cell-based; conditions: read-out: Reporter EC50
T1 construct: stably transfected HaCaT keratinocyte cell line, which expresses NanoLuc luciferase reporter gene under the transcriptional control of the STAT6 responsive promoter; endogenous in cells; host or cells: HaCaT keratinocyte reporter cell line (stably transfected with a NanoLuc reporter)
T1 sequence (P42226 1-847): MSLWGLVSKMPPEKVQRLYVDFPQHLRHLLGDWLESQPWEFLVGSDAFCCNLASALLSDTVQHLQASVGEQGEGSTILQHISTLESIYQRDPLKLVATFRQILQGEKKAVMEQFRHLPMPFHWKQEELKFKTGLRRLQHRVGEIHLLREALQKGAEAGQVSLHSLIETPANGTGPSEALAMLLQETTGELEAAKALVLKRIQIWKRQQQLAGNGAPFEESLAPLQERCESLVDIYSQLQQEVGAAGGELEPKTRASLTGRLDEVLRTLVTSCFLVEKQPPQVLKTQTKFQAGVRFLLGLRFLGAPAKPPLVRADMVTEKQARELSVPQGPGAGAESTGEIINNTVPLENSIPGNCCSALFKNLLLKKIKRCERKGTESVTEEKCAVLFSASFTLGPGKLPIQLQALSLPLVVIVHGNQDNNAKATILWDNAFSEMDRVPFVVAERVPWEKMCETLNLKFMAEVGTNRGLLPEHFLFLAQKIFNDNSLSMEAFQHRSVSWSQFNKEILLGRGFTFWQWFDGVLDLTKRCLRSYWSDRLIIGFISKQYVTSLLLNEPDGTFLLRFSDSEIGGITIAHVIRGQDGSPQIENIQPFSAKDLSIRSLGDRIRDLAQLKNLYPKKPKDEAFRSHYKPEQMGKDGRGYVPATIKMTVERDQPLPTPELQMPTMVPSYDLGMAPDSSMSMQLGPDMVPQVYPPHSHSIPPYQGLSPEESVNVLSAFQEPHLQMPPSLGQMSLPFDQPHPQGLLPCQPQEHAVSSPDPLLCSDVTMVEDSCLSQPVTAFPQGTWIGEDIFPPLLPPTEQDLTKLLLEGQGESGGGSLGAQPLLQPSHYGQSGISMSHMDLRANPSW
In short: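 Compounds were tested as 11-point, 4-fold series in duplicate, applied for 2 h at 37 °C in low-serum (2% FBS) DMEM. The cells were a stable HaCaT line with NanoLuc under a STAT6-responsive IL-13Ra2 promoter. After 4 h with 0.12 nM IL-13, Nano-Glo luminescence was measured.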

[1] = system: CCL17 secretion in peripheral human whole blood; test: Human Whole Blood (HWB) CCL17 TR-FRET Assay (IL-13 stimulated CCL17 secretion); format: cell-based
In short: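 IC50 values reflect inhibition of IL-13-driven CCL17 release in human whole blood. Blood was preincubated with compound 2 h, stimulated 48 h at 37 °C with IL-13 (10 ng/mL final), and serum CCL17 was measured by TR-FRET.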

[2] = IL-13 stimulated HaCaT STAT6 NanoLuc reporter cells
[3] = Homo sapiens, 48 h, human whole blood, 10 ng/mL IL13, 48 hours
[4] = Homo sapiens, 48 h, human whole blood, IL-13 stimulated
[5] = STAT6 NanoLuc luciferase reporter, IL-13 stimulated HaCaT keratinocyte cells
[6] = Homo sapiens, 48 h, inhibition of CCL17 secretion in human whole blood, 10 ng/mL IL13, 48 hours

| SMILES | EC50 (STAT6; [2]) | IC50 [1, 3] | other results |
| --- | --- | --- | --- |
| CC(C)n1nc(C(=O)NCc2ccc(NC(=O)N(C)C)cc2)c2c1C(C(F)F)CN(c1ccc(C(=O)N(C)C)cn1)C2 (single isomer, unassigned) [Example 493, rel-(R or S)-7-(difluoromethyl)-5-(5-(dimethylcarbamoyl)pyridin-2-yl)-N-(4-(3,3-dimethylureido)benzyl)-1-isopropyl-4,5,6,7-tetrahydro-1H-pyrazolo[4,3-c]pyridine-3-carboxamide] | 28 nM | – | IC50 ([1]; human whole blood, IL-13 stimulated, 48 hours): 203 nM |
| CC(C)n1nc(C(=O)NCc2ccc(NC(=O)N3CCCN(C)CC3)c(F)c2)c2c1[C@@H](C)CN(c1ccc(C(=O)N(C)C)cn1)C2 [Example 607, (S)-5-(5-(dimethylcarbamoyl)pyridin-2-yl)-N-(3-fluoro-4-(4-methyl-1,4-diazepane-1-carboxamido)benzyl)-1-isopropyl-7-methyl-4,5,6,7-tetrahydro-1H-pyrazolo[4,3-c]pyridine-3-carboxamide] | 2 nM | 21 nM | – |
| CC(C)n1nc(C(=O)NCc2ccc(NC(=O)N3CC[C@](C)(N)C3)cc2)c2c1[C@@H](C)CN(c1ccc(C(=O)N(C)C)cc1)C2 [Example 570, (S)-N-(4-((S)-3-amino-3-methylpyrrolidine-1-carboxamido)benzyl)-5-(4-(dimethylcarbamoyl)phenyl)-1-isopropyl-7-methyl-4,5,6,7-tetrahydro-1H-pyrazolo[4,3-c]pyridine-3-carboxamide] | 3 nM | 27 nM | – |
| CC(C)n1nc(C(=O)NCc2ccc(NC(=O)N3CC(F)(F)C3)cc2)c2c1[C@@H](C)CN(c1ccc(C(=O)N(C)C)cn1)C2 [Example 599, (S)-N-(4-(3,3-difluoroazetidine-1-carboxamido)benzyl)-5-(5-(dimethylcarbamoyl)pyridin-2-yl)-1-isopropyl-7-methyl-4,5,6,7-tetrahydro-1H-pyrazolo[4,3-c]pyridine-3-carboxamide] | 1 nM | 12 nM | – |
| CC(C)n1nc(C(=O)NCc2ccc(NC(=O)N3CCCN(C)CC3)cc2)c2c1[C@@H](C)CN(c1ccc(C(=O)N(C)C)cc1)C2 [Example 567, (S)-5-(4-(Dimethylcarbamoyl)phenyl)-1-isopropyl-7-methyl-N-(4-(4-methyl-1,4-diazepane-1-carboxamido)benzyl)-4,5,6,7-tetrahydro-1H-pyrazolo[4,3-c]pyridine-3-carboxamide] | 1 nM | 13 nM | – |
| C[C@@H]1CN(c2ccc(C(=O)N(C)C)cn2)Cc2c(C(=O)NCc3ccc(NC(=O)N(C)C)cc3)nn(C3CCOCC3)c21 (single isomer, unassigned) [Example 556] | 58 nM | 196 nM | – |
| CN[C@H]1CCN(C(=O)Nc2ccc(CNC(=O)c3nn(C(C)C)c4c3CN(c3ccc(C(=O)N(C)C)cc3)C[C@@H]4C)cc2)C1 [Example 571, (S)-5-(4-(dimethylcarbamoyl)phenyl)-1-isopropyl-7-methyl-N-(4-((S)-3-(methylamino)pyrrolidine-1-carboxamido)benzyl)-4,5,6,7-tetrahydro-1H-pyrazolo[4,3-c]pyridine-3-carboxamide] | 4 nM | 20 nM | – |
| CC(C)n1nc(C(=O)NCc2ccc(NC(=O)N(C)C)cc2)c2c1[C@@H](C)CN(c1ncc(N3CCCC3=O)cn1)C2 [Example 486, (S)-N-(4-(3,3-dimethylureido)benzyl)-1-isopropyl-7-methyl-5-(5-(2-oxopyrrolidin-1-yl)pyrimidin-2-yl)-4,5,6,7-tetrahydro-1H-pyrazolo[4,3-c]pyridine-3-carboxamide] | 2 nM | – | IC50 [1, 4]: 11 nM |
| CC(C)n1nc(C(=O)NCc2ccc(NC(=O)N(C)C)cc2)c2c1[C@@H](C)CN(c1ccc(N3CCCC3=O)cn1)C2 [Example 530, (S)—N-(4-(3,3-Dimethylureido)benzyl)-1-isopropyl-7-methyl-5-(5-(2-oxopyrrolidin-1-yl)pyridin-2-yl)-4,5,6,7-tetrahydro-1H-pyrazolo[4,3-c]pyridine-3-carboxamide] | 0.2 nM | 6 nM | – |
| CC(C)n1nc(C(=O)NCc2ccc(C(=O)NCC3CCN(C)CC3)cc2)c2c1[C@@H](C)CN(c1ccc(C(=O)N(C)C)cc1)C2 [Example 617, (S)-5-(4-(dimethylcarbamoyl)phenyl)-1-isopropyl-7-methyl-N-(4-(((1-methylpiperidin-4-yl)methyl)carbamoyl)benzyl)-4,5,6,7-tetrahydro-1H-pyrazolo[4,3-c]pyridine-3-carboxamide] | 178 nM | 502 nM | – |
| CC(C)n1nc(C(=O)NCc2ccc(NC(=O)C3CCN(C)CC3)cc2)c2c1[C@@H](C)CN(c1ccc(C(=O)N(C)C)cc1)C2 [Example 585, (S)-5-(4-(dimethylcarbamoyl)phenyl)-1-isopropyl-7-methyl-N-(4-(1-methylpiperidine-4-carboxamido)benzyl)-4,5,6,7-tetrahydro-1H-pyrazolo[4,3-c]pyridine-3-carboxamide] | 6 nM | 37 nM | – |
| CNC(=O)Nc1ccc(CNC(=O)c2nn(C(C)C)c3c2CN(c2ccc(C(N)=O)cn2)CC3)cc1 [Example 453, 5-(5-carbamoylpyridin-2-yl)-1-isopropyl-N-(4-(3-methylureido)benzyl)-4,5,6,7-tetrahydro-1H-pyrazolo[4,3-c]pyridine-3-carboxamide] | 2150 nM | – | IC50 [1, 4]: 12100 nM |
| CC(C)n1nc(C(=O)NCc2ccc(NC(=O)N(C)C)cc2)c2c1[C@@H](C)CN(c1ccc(C(=O)N(C)CC3CCNCC3)cc1)C2 [Example 637, (S)-N-(4-(3,3-dimethylureido)benzyl)-1-isopropyl-7-methyl-5-(4-(methyl(piperidin-4-ylmethyl)carbamoyl)phenyl)-4,5,6,7-tetrahydro-1H-pyrazolo[4,3-c]pyridine-3-carboxamide] | 13 nM | 48 nM | – |
| CN(C)C(=O)Nc1ccc(CNC(=O)c2nn(CCC(N)=O)c3c2CN(c2ccc(C(=O)N(C)C)cn2)CC3)cc1 [Example 309, 1-(3-amino-3-oxopropyl)-5-(5-(dimethylcarbamoyl)pyridin-2-yl)-N-(4-(3,3-dimethylureido)benzyl)-4,5,6,7-tetrahydro-1H-pyrazolo[4,3-c]pyridine-3-carboxamide] | 1710 nM | – | IC50 [1, 4]: 4100 nM |
| CCn1nc(C(=O)NCc2ccc(NC(=O)N(C)C)cc2)c2c1C(C(F)(F)F)CN(c1ncc(C(=O)N(C)C)cn1)C2 (racemic) [Example 460, rac-(R)-5-(5-(dimethylcarbamoyl)pyrimidin-2-yl)-N-(4-(3,3-dimethylureido)benzyl)-1-ethyl-7-(trifluoromethyl)-4,5,6,7-tetrahydro-1H-pyrazolo[4,3-c]pyridine-3-carboxamide] | 0.3 nM | – | IC50 [1, 4]: 7 nM |
| CC(C)n1nc(C(=O)NCc2ccc(NC(=O)N(C)C)cc2)c2c1[C@@H](C)CN(c1ncc(C(=O)N(C)C)cn1)C2 [Example 127] | – | – | EC50 (STAT6; [5]): 1 nM; IC50 [1, 6]: 4 nM |
| CC(C)n1nc(C(=O)NCc2ccc(NC(=O)N3CCO[C@H](CO)C3)cc2)c2c1CCN(c1ccc(C(=O)N(C)C)cn1)C2 [Example 159, (S)-N-(4-((5-(5-(dimethylcarbamoyl)pyridin-2-yl)-1-isopropyl-4,5,6,7-tetrahydro-1H-pyrazolo[4,3-c]pyridine-3-carboxamido)methyl)phenyl)-2-(hydroxymethyl)morpholine-4-carboxamide] | – | – | EC50 (STAT6; [5]): 16 nM; IC50 [1, 6]: 59 nM |
| CC(C)n1nc(C(=O)NCc2ccc(NC(=O)N3CC4(CCN4)C3)cc2)c2c1[C@@H](C)CN(c1ccc(C(=O)N(C)C)cc1)C2 [Example 621, (S)-N-(4-(1,6-diazaspiro[3.3]heptane-6-carboxamido)benzyl)-5-(4-(dimethylcarbamoyl)phenyl)-1-isopropyl-7-methyl-4,5,6,7-tetrahydro-1H-pyrazolo[4,3-c]pyridine-3-carboxamide] | 7 nM | 31 nM | – |
